According to patent publication US12129246B1, “Hydroquinazoline derivatives for the treatment of a disease or disorder” (Novartis AG, priority 2023, dated 2024):
Like-named read-outs stand apart in the source and are kept apart here.

What was measured:
human NPR1 = molecular target: T1, human NPR1 (Homo sapiens, UniProt P16066); assay: Cellular cGMP production assay, human NPR1 expressing CHO-K1 cells (CisBio HTRF); assay type: cell-based; conditions: for AC50: cGMP production, 30 min at 37° C., 12-point dose-response from 30 μM; for Human NPR1 Amax (% of ANP): maximum cGMP production as percentage of the maximum cGMP produced with ANP
T1 construct: host or cells: CHO-K1
T1 sequence (P16066 33-1061): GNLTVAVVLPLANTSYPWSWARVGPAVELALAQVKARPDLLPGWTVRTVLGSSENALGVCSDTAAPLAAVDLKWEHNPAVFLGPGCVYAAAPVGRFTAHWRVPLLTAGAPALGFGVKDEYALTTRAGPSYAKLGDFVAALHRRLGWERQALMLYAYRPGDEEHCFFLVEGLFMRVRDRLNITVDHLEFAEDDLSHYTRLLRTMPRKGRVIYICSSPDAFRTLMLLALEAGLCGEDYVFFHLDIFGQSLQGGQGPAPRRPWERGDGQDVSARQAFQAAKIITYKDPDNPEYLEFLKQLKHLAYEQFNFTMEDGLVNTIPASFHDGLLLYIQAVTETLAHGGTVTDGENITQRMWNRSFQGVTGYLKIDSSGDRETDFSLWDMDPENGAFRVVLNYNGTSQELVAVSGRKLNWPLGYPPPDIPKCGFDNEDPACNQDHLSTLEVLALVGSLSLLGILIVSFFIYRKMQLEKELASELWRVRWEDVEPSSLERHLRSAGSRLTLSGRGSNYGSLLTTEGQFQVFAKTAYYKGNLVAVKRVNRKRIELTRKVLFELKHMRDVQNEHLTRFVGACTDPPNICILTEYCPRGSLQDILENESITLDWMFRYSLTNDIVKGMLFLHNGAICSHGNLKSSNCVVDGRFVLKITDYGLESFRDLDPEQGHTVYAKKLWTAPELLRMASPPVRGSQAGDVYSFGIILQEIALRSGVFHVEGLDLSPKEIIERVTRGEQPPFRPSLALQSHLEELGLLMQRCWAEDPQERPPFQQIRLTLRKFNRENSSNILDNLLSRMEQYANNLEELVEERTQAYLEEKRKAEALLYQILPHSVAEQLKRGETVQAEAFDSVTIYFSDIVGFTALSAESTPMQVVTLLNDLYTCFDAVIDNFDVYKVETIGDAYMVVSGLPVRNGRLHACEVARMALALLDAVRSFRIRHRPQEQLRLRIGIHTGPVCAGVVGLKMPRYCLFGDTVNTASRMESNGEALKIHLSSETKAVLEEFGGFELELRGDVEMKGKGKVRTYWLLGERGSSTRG
In short: (§1)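 Step 1: add buffer (PBS, 0.1% BSA, 1 mM IBMX) and compounds, 3-fold series from 30 μM top. Step 2: incubate 30 min, 37 °C. Step 3: lyse; HTRF reagents 1 h at RT.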

monkey NPR1 = monkey NPR1 (Macaca fascicularis, UniProt A0A7N9DBT9); assay: Cellular cGMP production assay, monkey NPR1 expressing CHO-K1 cells (CisBio HTRF); assay type: cell-based; conditions: for Monkey NPR1 Amax (% of ANP): maximum cGMP production as percentage of the maximum cGMP produced with ANP
monkey NPR1, sequence (A0A7N9DBT9 entry or part of it): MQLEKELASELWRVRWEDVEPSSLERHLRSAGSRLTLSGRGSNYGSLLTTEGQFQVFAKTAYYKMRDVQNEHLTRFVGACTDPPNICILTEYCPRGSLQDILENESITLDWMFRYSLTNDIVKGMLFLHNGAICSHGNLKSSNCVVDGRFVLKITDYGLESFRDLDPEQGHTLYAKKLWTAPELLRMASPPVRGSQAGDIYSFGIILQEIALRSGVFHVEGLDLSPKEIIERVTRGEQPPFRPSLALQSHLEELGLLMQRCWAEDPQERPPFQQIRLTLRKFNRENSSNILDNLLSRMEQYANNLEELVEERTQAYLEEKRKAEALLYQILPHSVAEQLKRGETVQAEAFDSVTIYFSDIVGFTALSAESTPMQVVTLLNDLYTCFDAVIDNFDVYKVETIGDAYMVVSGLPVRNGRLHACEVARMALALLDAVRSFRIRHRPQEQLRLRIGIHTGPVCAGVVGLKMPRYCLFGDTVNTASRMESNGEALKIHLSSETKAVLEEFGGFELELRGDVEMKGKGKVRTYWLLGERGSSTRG
In short: as §1

[1] = cGMP production, monkey NPR1 CHO-K1 cells, 30 min at 37° C., 12-point dose-response from 30 μM, read-out: Monkey NPR1 AC50

Row | Compound | AC50 (human NPR1) | Human NPR1 Amax (% of ANP) (human NPR1) | AC50 (monkey NPR1) | Monkey NPR1 Amax (% of ANP) (monkey NPR1; monkey NPR1 CHO-K1 cells) | AC50 (monkey NPR1; [1])
1 | CC[C@@H](N(C)c1nc2c(c(N[C@@H](CN3C4CCCC3CC4)c3cnc(C)s3)n1)C[C@H](c1cccc(F)c1)CC2)C12CC(C(=O)O)(C1)C2 [Compound 77, 3-((1R)-1-(((6R)-4-(((1S)-2-(8-azabicyclo[3.2.1]octan-8-yl)-1-(2-methylthiazol-5-yl)ethyl)amino)-6-(3-fluorophenyl)-5,6,7,8-tetrahydroquinazolin-2-yl)(methyl)amino)propyl)bicyclo[1.1.1]pentane-1-carboxylic acid] | 0.249 µM | 95.666 % of ANP | 0.134 µM | 96.715 % of ANP | –
2 | CC[C@H]([C@H]1CC[C@H](C(=O)O)CC1)N(C)c1nc2c(c(N[C@@H](CN3C4CCC3CC4)c3cnn(C)c3)n1)C[C@](C)(c1ccccc1)CC2 [Compound 70, (1R,4r)-4-((R)-1-(((R)-4-(((R)-2-(7-azabicyclo[2.2.1]heptan-7-yl)-1-(1-methyl-1H-pyrazol-4-yl)ethyl)amino)-6-methyl-6-phenyl-5,6,7,8-tetrahydroquinazolin-2-yl)(methyl)amino)propyl)cyclohexane-1-carboxylic acid] | 0.234 µM | 97.399 % of ANP | 0.23 µM | 100.673 % of ANP | –
3 | CC[C@H]([C@H]1CC[C@H](C(=O)O)CC1)N(C)c1nc2c(c(N[C@@H](CN3C4CCCC3CC4)c3ccn(C)n3)n1)C[C@H](c1cccc(F)c1)CC2 [Compound 105, (1R,4r)-4-((1R)-1-(((6R)-4-(((1S)-2-(8-azabicyclo[3.2.1]octan-8-yl)-1-(1-methyl-1H-pyrazol-3-yl)ethyl)amino)-6-(3-fluorophenyl)-5,6,7,8-tetrahydroquinazolin-2-yl)(methyl)amino)propyl)cyclohexane-1-carboxylic acid] | 0.396 µM | 99.945 % of ANP | 0.272 µM | 97.086 % of ANP | –
4 | CC[C@H]([C@H]1CC[C@H](C(=O)O)CC1)N(C)c1nc2c(c(N[C@@H](CN3CCC[C@H](C)C3)c3cnn(C)c3)n1)C[C@@H](c1ccccc1F)CC2 [Compound 141, (1R,4r)-4-((R)-1-(((S)-6-(2-fluorophenyl)-4-(((R)-1-(1-methyl-1H-pyrazol-4-yl)-2-((S)-3-methylpiperidin-1-yl)ethyl)amino)-5,6,7,8-tetrahydroquinazolin-2-yl)(methyl)amino)propyl)cyclohexane-1-carboxylic acid] | 0.888 µM | 102.728 % of ANP | – | 105.798 % of ANP | 0.731 µM
5 | CC[C@@H](Nc1nc2c(c(N[C@@H](CN3C4CCCC3CCC4)c3cnn(CC)c3)n1)C[C@H](c1ccccc1)CC2)[C@H]1CC[C@H](C(=O)O)CC1 [Compound 65, (1R,4r)-4-((R)-1-(((R)-4-(((R)-2-((1S,5S)-9-azabicyclo[3.3.1]nonan-9-yl)-1-(1-ethyl-1H-pyrazol-4-yl)ethyl)amino)-6-phenyl-5,6,7,8-tetrahydroquinazolin-2-yl)amino)propyl)cyclohexane-1-carboxylic acid] | 0.217 µM | 106.664 % of ANP | 0.128 µM | 99.329 % of ANP | –
6 | CC[C@@H](Nc1nc2c(c(N[C@@H](CN3CCCC[C@H]3C)c3cnn(C)c3)n1)C[C@H](c1ccccc1)CC2)[C@H]1CC[C@H](C(=O)O)CC1 [Compound 90, (1R,4r)-4-((R)-1-(((R)-4-(((R)-1-(1-methyl-1H-pyrazol-4-yl)-2-((R)-2-methylpiperidin-1-yl)ethyl)amino)-6-phenyl-5,6,7,8-tetrahydroquinazolin-2-yl)amino)propyl)cyclohexane-1-carboxylic acid] | 0.313 µM | 103.308 % of ANP | – | 106.347 % of ANP | 0.224 µM
7 | CC[C@H]([C@H]1CC[C@H](C(=O)O)CC1)N(C)c1nc2c(c(N[C@@H](CN3C4CCCC3CCC4)c3cnn(C)c3)n1)C[C@H](c1cccc(F)c1)CC2 [Compound 29, (1R,4r)-4-((R)-1-(((R)-4-(((R)-2-((1S,5S)-9-azabicyclo[3.3.1]nonan-9-yl)-1-(1-methyl-1H-pyrazol-4-yl)ethyl)amino)-6-(3-fluorophenyl)-5,6,7,8-tetrahydroquinazolin-2-yl)(methyl)amino)propyl)cyclohexane-1-carboxylic acid] | 0.14 µM | 102.911 % of ANP | 0.137 µM | 128.079 % of ANP | –
8 | CC[C@H]([C@H]1CC[C@H](C(=O)O)CC1)N(C)c1nc2c(c(N[C@@H](CN3C4CCCC3CC4)c3cnn(C)c3)n1)C[C@](C)(c1ccccc1)CC2 [Compound 34, (1R,4r)-4-((1R)-1-(((6R)-4-(((1R)-2-(8-azabicyclo[3.2.1]octan-8-yl)-1-(1-methyl-1H-pyrazol-4-yl)ethyl)amino)-6-methyl-6-phenyl-5,6,7,8-tetrahydroquinazolin-2-yl)(methyl)amino)propyl)cyclohexane-1-carboxylic acid] | 0.146 µM | 95.375 % of ANP | 0.091 µM | 100.553 % of ANP | –
9 | CC[C@@H](Nc1nc2c(c(N[C@@H](CN3CCCCC3)c3scnc3C)n1)C[C@H](c1ccccc1)CC2)[C@H]1CC[C@H](C(=O)O)CC1 [Compound 114, (1R,4r)-4-((R)-1-(((R)-4-(((S)-1-(4-methylthiazol-5-yl)-2-(piperidin-1-yl)ethyl)amino)-6-phenyl-5,6,7,8-tetrahydroquinazolin-2-yl)amino)propyl)cyclohexane-1-carboxylic acid] | 0.449 µM | 108.428 % of ANP | – | 113.348 % of ANP | 0.296 µM
10 | CC[C@H]([C@H]1CC[C@H](C(=O)O)CC1)N(C)c1nc2c(c(N[C@@H](CN3CCC(O)CC3)c3cnn(CC)c3)n1)C[C@H](c1ccccc1)CC2 [Compound 154, (1R,4r)-4-((R)-1-(((R)-4-(((R)-1-(1-ethyl-1H-pyrazol-4-yl)-2-(4-hydroxypiperidin-1-yl)ethyl)amino)-6-phenyl-5,6,7,8-tetrahydroquinazolin-2-yl)(methyl)amino)propyl)cyclohexane-1-carboxylic acid] | 1.24 µM | 105.125 % of ANP | – | 97.456 % of ANP | 0.802 µM
11 | CC[C@H]([C@H]1CC[C@H](C(=O)O)CC1)N(C)c1nc2c(c(N[C@@H](CN3CCC[C@H](C)C3)c3cnn(C)c3)n1)C[C@@H](c1ccccc1)CC2 [Compound 101, (1R,4r)-4-((R)-1-(methyl((S)-4-(((R)-1-(1-methyl-1H-pyrazol-4-yl)-2-((S)-3-methylpiperidin-1-yl)ethyl)amino)-6-phenyl-5,6,7,8-tetrahydroquinazolin-2-yl)amino)propyl)cyclohexane-1-carboxylic acid] | 0.377 µM | 93.777 % of ANP | – | 101.476 % of ANP | 0.335 µM
12 | CC[C@@H](Nc1nc2c(c(N[C@@H](CN3CCCC[C@@H]3C)c3cnn(C)c3)n1)C[C@H](c1ccccc1)CC2)[C@H]1CC[C@H](C(=O)O)CC1 [Compound 123, (1R,4r)-4-((R)-1-(((R)-4-(((R)-1-(1-methyl-1H-pyrazol-4-yl)-2-((S)-2-methylpiperidin-1-yl)ethyl)amino)-6-phenyl-5,6,7,8-tetrahydroquinazolin-2-yl)amino)propyl)cyclohexane-1-carboxylic acid] | 0.592 µM | 103.006 % of ANP | – | 102.761 % of ANP | 0.377 µM
13 | CC[C@H]([C@H]1CC[C@H](C(=O)O)CC1)N(C)c1nc2c(c(NC(CN3CCC[C@H](C)C3)c3cnn(CF)c3)n1)C[C@H](c1ccccc1)CC2 (stereo partly drawn) [Compound 107, (1R,4r)-4-((1R)-1-(((6R)-4-((1-(1-(fluoromethyl)-1H-pyrazol-4-yl)-2-((S)-3-methylpiperidin-1-yl)ethyl)amino)-6-phenyl-5,6,7,8-tetrahydroquinazolin-2-yl)(methyl)amino)propyl)cyclohexane-1-carboxylic acid] | 0.404 µM | 97.223 % of ANP | – | 100.163 % of ANP | 0.224 µM
